This is an account of results in patent US20220041641A1, “QUATERNARY AMMONIUM SALTS AS INHIBITORS OF TRIMETHYLAMINE PRODUCTION” (Senda Biosciences, Inc., priority 2018, published 2022).

A short description of one data set: in vivo. Further details: species or system Sprague-Dawley rats. Particulars: Sprague-Dawley, rat.
Data set [1] is classed as in vitro ADME. As to conditions: simulated gi fluid, 1 µM, pH 6.7. How it is done: This assay was used to assess the stability of a conjugate in a small intestine.
Phosphate buffer was prepared by dissolving 0.42 g of sodium hydroxide pellets and 3.95 g of monobasic sodium phosphate monohydrate and 6.19 g of sodium chloride in ultrapure water (MilliQ®, Millipore Sigma, Darmstadt, Germany). The pH was adjusted to 6.7 using aq. HCl and aq. NaOH, as necessary, and the solution was diluted with ultrapure water to produce 1 L of the pH 6.7 buffer.
112 mg FaSSIF powder (Biorelevant™, London, UK) was dissolved in 50 mL of the pH 6.7 buffer. 2 to 3 mL of the resulting solution were then added to 500 mg pancreatin (Millipore Sigma, Darmstadt, Germany). The resulting mixture was agitated by finger tapping the vessel containing the mixture until milky suspension formed. At this time, the remainder of the 50 mL FaSSiF/pH 6.7 buffer solution was added. The resulting suspension was flipped upside down 10 times to produce SIF, which was used fresh.
Test compounds were dissolved in DMSO stock to 1 mM. An aliquot of the DMSO stock solution was removed and diluted in the SIF media in 15 mL falcon tubes to produce a mixture with a tested compound concentration of 1 μM. A 1 mL aliquot was immediately removed and diluted once with 1 volume of acetonitrile for T0 timepoint. The mixture was sealed and agitated at 37° C. in an incubator. Aliquots (1 mL) were removed at regular intervals and immediately quenched by the addition of 1 volume of acetonitrile. The resulting samples were analyzed by LCMS to determine degradation rates.

Data set [2] can be described thus: Caco-2 permeability assay. The class given is in vitro ADME. As to conditions: human, Caco-2, pH 7.4. (Caco-2 cells form a polarised layer with tight junctions and transporters.)

Structures are written as SMILES.

Broadly, the Cmax is the highest concentration seen after dosing. As usually defined, the bioavailability is dose-corrected exposure relative to a reference, in per cent. A higher bioavailability goes with good availability. The Papp A→B is the apparent permeability from the apical to the basolateral side of a cell layer. The Papp B→A is how fast a substance crosses the layer from the basolateral side. In the case of `CC(=O)OC[C@H]1O[C@@H](OCC[N+](C)(C)C2CC2)[C@H](OC(C)=O)[C@@H](OC(C)=O)[C@@H]1OC(C)=O.[I-]` [Compound 80, N,N-dimethyl-N-(2-{[(3R,4S,5R,6R)-3,4,5-tris(acetyloxy)-6-[(acetyloxy)methyl]oxan-2-yl]oxy}ethyl)cyclopropanaminium Iodide], in the data set “in vivo” (iv, 1 mg/kg), the Cmax was 7.68 µM and the “IV Cmax” value is 0 nM. Moreover, in the data set “in vivo” (po, 10 mg/kg), the “% F” value came out at 1.5% and the bioavailability is 0.68%. For the same compound, the “Assay 2- FaSSIF Stability: % Remaining at 4 hr” value in data set [1] is 99.34%. Also, in data set [2], the Papp A→B at 2 h, 1 µM amounted to 0.28 ×10⁻⁶ cm/s and the Papp B→A at 2 h, 1 µM stood at 0.313 ×10⁻⁶ cm/s.
